Measurements from ChEMBL document CHEMBL1833934, “Discovery and optimization of 1-(4-(pyridin-2-yl)benzyl)imidazolidine-2,4-dione derivatives as a novel class of selective cannabinoid CB2 receptor agonists” (J Med Chem, 2011).

Tests used:
[1] = Lipophilicity, log D of the compound; assay type: physicochemical; conditions: octanol/water
[2] = Dissociation constant, pKa of the compound; assay type: physicochemical
[3] = Cmax in Wistar BRL rat plasma at 5 mg/kg, po; assay type: ADME, organism-based; set-up: dose 5 mg/kg, route oral
Rattus norvegicus = assay: Unbound Cmax in Wistar BRL rat plasma at 5 mg/kg, po; assay type: ADME, organism-based; set-up: dose 5 mg/kg, route oral; conditions: in vivo
[4] = Volume of distribution at steady state in Wistar BRL rat plasma at 1 mg/kg, iv and 5 mg/kg, po; assay type: ADME, organism-based; conditions: read-out: Vdss
[5] = Apparent permeability across human Caco2 cell membrane at 20 uM after 1 hr by LC-MS/MS analysis; conditions: Caco-2
[6] = Oral bioavailability in Wistar BRL rat at 5 mg/kg; assay type: ADME, organism-based; conditions: in vivo
in vivo [7] = conditions: Wistar BRL, rat, cerebrospinal fluid, po, 20 mg/kg
in vivo [8] = conditions: Wistar BRL, rat, brain, po, 20 mg/kg

SMILES | logD [1] | pKa [2] | also measured
CCCN1C(=O)CN(Cc2ccc(-c3cccc(CN4CCCCC4)n3)cc2)C1=O | 2.2 | 8.8 | –
CCN1C(=O)CN(Cc2ccc(-c3ccc(F)c(CN4CCCCC4)n3)cc2)C1=O | 2.1 | 8.5 | –
CN1C(=O)CN(Cc2ccc(-c3cccc(CN4CCCCC4)n3)cc2)C1=O | 1.3 | 8.7 | –
CC(C)CN1C(=O)CN(Cc2ccc(-c3cccc(CN4CCCC(F)C4)n3)cc2)C1=O (centres undefined) | 3.7 | 7.4 | –
CC(C)CN1C(=O)CN(Cc2ccc(-c3ccc(F)c(CN4CCCC(F)(F)C4)n3)cc2)C1=O | 4.7 | 5 | –
CCN1C(=O)CN(Cc2ccc(-c3cccc(CC4CCCCC4)n3)cc2)C1=O | 5.6 | – | –
CC(C)CN1C(=O)CN(Cc2ccc(-c3ccc(F)c(CN4CCCC(C)C4)n3)cc2)C1=O (centres undefined) | 3.9 | 8.4 | –
CCCN1C(=O)CN(Cc2ccc(-c3ccc(F)c(CN4CCCCC4)n3)cc2)C1=O | 2.5 | 8.5 | –
O=C1CN(Cc2ccc(-c3cccc(CN4CCCCC4)n3)cc2)C(=O)N1CC(F)(F)F | 1.9 | – | –
O=C1CN(Cc2ccc(-c3ccc(F)c(CN4CCCCC4)n3)cc2)C(=O)N1CC1CCC1 | 3.5 | 8.6 | –
O=C1CN(Cc2ccc(-c3cccc(CN4CCCCC4)n3)cc2)C(=O)N1CC1CC1 | 2.5 | 8.9 | –
CC(C)N1C(=O)CN(Cc2ccc(-c3cccc(CN4CCCCC4)n3)cc2)C1=O | 2.2 | – | –
CC(C)CN1C(=O)CN(Cc2ccc(-c3ccc(F)c(CN4CCOCC4)n3)cc2)C1=O | 3.4 | 6 | –
CC(C)CN1C(=O)CN(Cc2ccc(-c3ccc(F)c(CN4CCCCC4)n3)cc2)C1=O | 3.4 | 8.6 | –
O=C1CN(Cc2ccc(-c3ccc(F)c(CN4CCCCC4)n3)cc2)C(=O)N1CC(F)F | 1.9 | 9 | –
CC(C)CN1C(=O)CN(Cc2ccc(-c3cccc(CN4CCCCC4)n3)cc2)C1=O | 2.8 | 8.9 | Cmax [3]: 20 nM; fCmax (Rattus norvegicus): 0.006 µM; Vd [4]: 5.4 L/kg; Papp at 1 h, 20 µM [5]: 21 ×10⁻⁶ cm/s; bioavailability [6]: 4%
O=C1CN(Cc2ccc(-c3ccc(F)c(CN4CCCCC4)n3)cc2)C(=O)N1CC1CC1 | 2.8 | 8.5 | –
O=C1CN(Cc2ccc(-c3cccc(CN4CCCCC4)n3)cc2)C(=O)N1CC(F)F | 1.6 | 8.9 | –
CC(C)CN1C(=O)CN(Cc2ccc(-c3cccc(CN4CCCC(C)C4)n3)cc2)C1=O (centres undefined) | 3.4 | 8.7 | –
CC(C)CN1C(=O)CN(Cc2ccc(-c3ccc(F)c(CN4CCS(=O)(=O)CC4)n3)cc2)C1=O | 3 | 3 | –
O=C1CN(Cc2ccc(-c3cccc(CN4CCCCC4)n3)cc2)C(=O)N1C1CCC1 | 2.7 | – | –
O=C1CN(Cc2ccc(-c3cccc(CN4CCCCC4)n3)cc2)C(=O)N1C1CC1 | 1.6 | 9 | –
CC(C)CN1C(=O)CN(Cc2ccc(-c3cccc(CN4CCS(=O)(=O)CC4)n3)cc2)C1=O | 3 | 3.7 | –
O=C1CN(Cc2ccc(-c3ccc(F)c(CN4CCS(=O)(=O)CC4)n3)cc2)C(=O)N1C1CC1 | 1 | 2.8 | Cmax [3]: 3800 nM; fCmax (Rattus norvegicus): 1.7 µM; Vd [4]: 0.94 L/kg; Kp at 4 h (in vivo [7]): 0.14; Kp at 4 h (in vivo [8]): 0.05; Papp at 1 h, 20 µM [5]: 17.3 ×10⁻⁶ cm/s; bioavailability [6]: 100%
CC(C)CN1C(=O)CN(Cc2ccc(-c3cccc(CN4CCCC(F)(F)C4)n3)cc2)C1=O | 4.5 | 5.3 | –
O=C1CN(Cc2ccc(-c3ccc(F)c(CN4CCCCC4)n3)cc2)C(=O)N1C1CC1 | 2 | 8.6 | –
CC(C)CN1C(=O)CN(Cc2ccc(-c3ccc(F)c(CN4CCCC(F)C4)n3)cc2)C1=O (centres undefined) | 4.1 | 7.2 | –
CCN1C(=O)CN(Cc2ccc(-c3cccc(CN4CCCCC4)n3)cc2)C1=O | 1.7 | 8.8 | –
